Measured values as given in patent US20110184018A1, “METHOD FOR TREATING PERIPHERAL NEUROPATHIC PAIN” (LOHOCLA RESEARCH CORPORATION, priority 2005, published 2011).
Read-outs that look alike come from different tables or passages of the source.

Tests used:
[1] = biological target: T1, glycine recognition site of the NMDA receptor complex (Rattus norvegicus, UniProt P35439); assay: [3H]5,7-DCKA binding assay; details: rat cortical membranes; none = no displacement at 100 μM
T1 construct: The telencephalon (cerebral cortex, hippocampus, and striatum) was dissected and homogenized; from tissue; host or cells: rat telencephalon membranes (cerebral cortex, hippocampus, striatum), Triton X-100 treated
Method: General receptor-binding procedures. Male Sprague-Dawley rats were decapitated and their brains removed rapidly. The telencephalon (cerebral cortex, hippocampus, and striatum) was dissected and homogenized in 20 volumes of ice-cold 0.32 M sucrose, 20 mM HEPES-KOH (pH 7.2 at room temperature) containing protease inhibitors ([…], 5 mg/mL antipain, 20 mg/mL soybean trypsin inhibitor, 500 μM benzamidine, […] aprotinin, and 500 μM phenylmethylsulfonyl fluoride) with a motor driven glass-TEFLON® fluorocarbon homogenizer (8-10 strokes at setting 1). The homogenate was centrifuged at 800 g for 10 minutes. The pellet was discarded and the supernatant was centrifuged at 20,000 g for 20 minutes. The resulting pellet was resuspended in 20 volumes of distilled water containing 500 μM benzamidine and centrifuged for 20 minutes at 7500 g. Then the supernatant and buffy coat were centrifuged three times (51,500 g for 20 minutes) in the presence of distilled water containing 500 μM benzamidine. All centrifugation steps were carried out at 4° C. The final pellet was frozen rapidly at −80° C.
On the day of the assay, the pelleted membranes were resuspended in 20 volumes of 50 mM HEPES-KOH buffer, pH 7.4, and incubated for 20 minutes at 37° C. followed by centrifugation (51,500 g for 20 minutes). Membranes were then resuspended in 50 mM HEPES-KOH buffer (pH 7.8) containing 0.08% Triton X-100. After stirring for 30 minutes at 4° C., the membranes were pelleted by centrifugation (100,000 g for 20 minutes). The membranes were then washed twice by resuspension in the buffer appropriate for the binding assay and centrifugation (100,000 g for 20 minutes). The final pellet was suspended in assay buffer. The amount of protein in the final membrane preparation was determined with the bicinchoninic acid method (BCA; Pierce Chemical Co., Rockford, Ill.). The final protein concentration used for our studies was 300 to 600 μg/mL. Receptor-binding protocols described below were adapted from published procedures. For all assays, the samples, all in duplicate or triplicate, were placed into scintillation vials containing 5.5 mL of scintillation liquid (Ultima Gold; Packard Instrument Co., Inc., Meriden, Conn.) and the retained radioactivity was determined by conventional scintillation spectroscopy with a Beckman TA-6000 scintillation counter. Radio-ligands were purchased from DuPont-NEN (Boston, Mass.).
[^3H]5,7-Dichlorokynurenic acid (5,7-DCKA)-binding assay. The glycine recognition site of the NMDA receptor complex was labeled with the competitive antagonist [^3H]5,7-dichlorokynurenic acid (5,7-DCKA). […]
Data Analysis. The data were analyzed with SigmaPlot 5.0 and SigmaStat 2.0 (Jandel Scientific, Corte Madera, Calif.) software. […]

[2] = biological target: voltage sensitive sodium channel (neurotoxin receptor Site 2); assay: [3H]BTX binding assay; details: rat cortical synaptosomes
[3] = biological target: T2, CB1 receptor (Homo sapiens, UniProt P21554); assay: cAMP accumulation in HEK293 cells transfected with AC5, D1AR, CB1R; format: cell-based
T2 construct: expressed in transfected cells; host or cells: HEK293 cells (ATCC), calcium phosphate transfection
T2 sequence (P21554 whole entry): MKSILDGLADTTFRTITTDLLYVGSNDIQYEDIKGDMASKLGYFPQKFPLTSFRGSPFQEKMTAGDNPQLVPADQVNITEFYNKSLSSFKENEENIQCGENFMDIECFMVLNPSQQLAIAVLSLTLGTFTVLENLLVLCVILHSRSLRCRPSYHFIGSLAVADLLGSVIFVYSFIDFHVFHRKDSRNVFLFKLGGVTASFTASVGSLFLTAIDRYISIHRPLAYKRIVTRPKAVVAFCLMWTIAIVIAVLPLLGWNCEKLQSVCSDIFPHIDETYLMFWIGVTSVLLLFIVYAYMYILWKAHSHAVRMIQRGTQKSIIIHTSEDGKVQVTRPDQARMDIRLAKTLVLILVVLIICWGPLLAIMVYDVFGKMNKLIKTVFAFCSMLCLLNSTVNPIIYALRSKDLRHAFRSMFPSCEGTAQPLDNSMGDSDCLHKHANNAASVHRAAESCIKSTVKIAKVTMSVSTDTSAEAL
Method: HEK293 cells were obtained from American Type Culture Collection (Manassas, Va.). Cells were cultured in 225 mL flasks containing 39 mL of MEM containing 10% fetal bovine serum, penicillin (50 μg/mL), streptomycin (50 μg/mL), and neomycin (100 μg/mL). The flasks were maintained in a humidified atmosphere of 95% air and 5% CO2 at about 37° C. Transfection was performed by the method of DNA precipitation with calcium phosphate 1 day after HEK 293 cells were transferred to small flasks (75 mL) at the density of approximately 60 to 80% confluence. Plasmid DNA containing AC5 or AC7 cDNA (11.5 μg), plasmid DNA carrying the human D1A dopamine receptor cDNA (3 μg) and CB1 receptor cDNA (3 μg), and pCMS-EGFP (1 μg) were used for each small flask, which also contained 13 mL of the culture medium. The amount of DNA per flask was adjusted to a total of 26 μg using vector DNA. Transfection efficiency was routinely monitored by observing the expression of enhanced green fluorescent protein (GFP) by an epifluorescence microscope equipped with a filter set (excitation, 480/40 nm; emission, 535/50 nm) and a dichroic mirror (T89002bs; Chroma Technology, Rockingham, Vt.). After transfection, cells were harvested and transferred into 24-well culture plates. The transfected cells were cultured for 1 to 2 days before the cAMP accumulation experiments were carried out.
After labeling and intracellular ATP pool with 3.0 μCi/mL of [2,8-^3H]adenine, cells were incubated in DMEM (0.5 mL/well) without phenol red, buffered to pH 7.1 with 20 mM of 4-(2-hydroxyethyl)-1-piperazineethanesulfonic acid (HEPES) for 30 minutes at 37° C.
To determine the effect of the DCUK-OEt or other compounds on the function of the CB1 receptor, the cells were treated with the phosphodiesterase inhibitor, IBMX (500 μM), for 10 minutes at 37° C., followed by the addition of D1A receptor agonist, dopamine (DA) (1 μM), in the presence of a known CB1 agonist or agonist, plus a CB1 antagonist for 5 minutes. The following agonist and antagonist were used: CB1 receptor agonist, ACEA (10 μM); CB1 receptor antagonist, AM251 (10 μM). In additional reactions, the addition of DA was accompanied by addition of DCUK-OEt (10 μM) or DCUK-OEt together with AM251 (10 μM). In a final set of reactions DCUK-OEt was added with ACEA (10 μM), to assess whether DCUK-OEt acted like a CB1 receptor antagonist. The reactions were terminated by adding 50 μL of 100% (w/v) tricholoroacetic acid. ATP and cAMP were separated through Dowex 50 and neutral alumina columns as is known in the art, and quantified by liquid scintillation counting. [α-^32P]ATP and 8-[^14C]cAMP were added as internal standards to monitor the recovery of ATP and cAMP through column chromatography. Conversion of [^3H] ATP into [^3H]cAMP was calculated as follows: [^3H]cAMP (%)=[^3H]cAMP (cpm)/([^3H]ATP (cpm)+[^3H]cAMP (cpm))·100. [^3H]cAMP (%) values obtained from cells which underwent only the 10-minute IBMX incubation period before the addition of trichloroacetic acid, were used as blanks and these values were subtracted from the values obtained from cells which underwent the 1-minute incubation period with DA in the presence or absence of other agonists/antagonists. Each condition was assayed in triplicate and the whole experimental procedure was repeated 4 times. The ratio of cAMP accumulation was calculated for all treatment groups versus DA treatment group (100%) and the values were averaged among the four batches of experiments.

[4] = biological target: rat brain type IIA Na+ channel (Nav1.2) (Rattus norvegicus, UniProt P04775); assay: Whole-cell patch clamp recordings of Na+ currents in CNaIIA-1 cells; format: cell-based
Chain of rat brain type IIA Na+ channel (Nav1.2) (P04775 whole entry): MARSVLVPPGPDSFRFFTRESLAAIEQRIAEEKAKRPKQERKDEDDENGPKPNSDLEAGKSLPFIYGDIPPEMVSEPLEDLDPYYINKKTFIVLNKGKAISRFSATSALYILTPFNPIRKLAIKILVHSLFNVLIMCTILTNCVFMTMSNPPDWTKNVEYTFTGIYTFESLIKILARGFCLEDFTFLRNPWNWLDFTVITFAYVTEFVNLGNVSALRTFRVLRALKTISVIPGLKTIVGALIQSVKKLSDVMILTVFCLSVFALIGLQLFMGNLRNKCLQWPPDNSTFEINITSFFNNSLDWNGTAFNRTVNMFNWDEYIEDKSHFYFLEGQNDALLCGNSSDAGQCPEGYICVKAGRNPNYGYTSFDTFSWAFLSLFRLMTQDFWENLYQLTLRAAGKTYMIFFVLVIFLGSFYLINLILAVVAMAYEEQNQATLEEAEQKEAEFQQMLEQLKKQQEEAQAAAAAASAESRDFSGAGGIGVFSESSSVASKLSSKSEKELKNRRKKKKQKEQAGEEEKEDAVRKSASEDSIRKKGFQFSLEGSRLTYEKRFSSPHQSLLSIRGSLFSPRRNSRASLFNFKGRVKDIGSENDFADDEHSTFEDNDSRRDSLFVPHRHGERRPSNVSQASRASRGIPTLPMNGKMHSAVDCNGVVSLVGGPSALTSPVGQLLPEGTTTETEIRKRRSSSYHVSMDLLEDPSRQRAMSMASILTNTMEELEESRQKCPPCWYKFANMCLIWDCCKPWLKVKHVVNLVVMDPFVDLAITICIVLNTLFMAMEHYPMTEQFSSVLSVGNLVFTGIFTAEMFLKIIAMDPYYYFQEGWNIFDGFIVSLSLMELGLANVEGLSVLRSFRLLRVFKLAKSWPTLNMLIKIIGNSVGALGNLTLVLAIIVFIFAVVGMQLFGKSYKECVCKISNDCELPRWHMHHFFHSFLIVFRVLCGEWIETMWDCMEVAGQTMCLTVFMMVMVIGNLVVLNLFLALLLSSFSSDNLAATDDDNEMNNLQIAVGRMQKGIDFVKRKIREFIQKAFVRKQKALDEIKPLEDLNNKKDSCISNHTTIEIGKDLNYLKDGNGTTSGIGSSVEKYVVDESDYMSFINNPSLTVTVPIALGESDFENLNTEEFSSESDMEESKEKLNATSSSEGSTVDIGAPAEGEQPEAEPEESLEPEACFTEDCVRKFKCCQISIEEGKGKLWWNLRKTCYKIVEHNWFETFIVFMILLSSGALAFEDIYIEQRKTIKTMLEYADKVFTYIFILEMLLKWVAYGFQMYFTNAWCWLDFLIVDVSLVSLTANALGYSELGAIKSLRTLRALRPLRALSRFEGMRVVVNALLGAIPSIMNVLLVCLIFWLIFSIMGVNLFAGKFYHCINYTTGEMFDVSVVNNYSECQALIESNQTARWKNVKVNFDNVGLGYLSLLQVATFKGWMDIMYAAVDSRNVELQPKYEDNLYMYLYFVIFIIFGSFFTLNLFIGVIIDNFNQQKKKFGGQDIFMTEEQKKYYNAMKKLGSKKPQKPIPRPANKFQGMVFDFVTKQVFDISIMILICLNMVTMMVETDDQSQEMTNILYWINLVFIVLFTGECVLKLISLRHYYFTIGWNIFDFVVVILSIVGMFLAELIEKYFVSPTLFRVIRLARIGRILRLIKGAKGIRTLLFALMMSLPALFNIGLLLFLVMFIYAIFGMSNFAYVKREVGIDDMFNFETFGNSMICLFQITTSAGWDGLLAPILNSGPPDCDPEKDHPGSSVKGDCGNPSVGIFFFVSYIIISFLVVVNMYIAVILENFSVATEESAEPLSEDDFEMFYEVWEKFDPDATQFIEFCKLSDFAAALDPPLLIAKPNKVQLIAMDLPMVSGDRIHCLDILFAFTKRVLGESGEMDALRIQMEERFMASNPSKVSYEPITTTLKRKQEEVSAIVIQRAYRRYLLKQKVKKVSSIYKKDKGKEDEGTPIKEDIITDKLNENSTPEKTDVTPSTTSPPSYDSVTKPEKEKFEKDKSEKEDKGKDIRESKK

[5] = tested on: DBA/2 mice; assay: Audiogenic seizures; format: in vivo, mouse; details: i.p., 100 and 500 mg/kg
Method: Audiogenic Seizures. Male DBA/2J mice (20-22 days old; 8-12 g) were used to evaluate the effects of DCUK-OMe in an animal model of partial seizures. Mice were dosed (i.p.) with vehicle (5% TWEEN 80/0.5% methylcellulose), 100 mg/kg DCUK-OMe, or 500 mg/kg DCUK-OMe, 30 minutes before noise stimulation. Mice were placed into a cylindrical Plexiglas testing chamber (15×50 cm, diameter 3 height) enclosed in a sound-attenuated box. After a 15- to 20-second habituation period, a high-intensity auditory stimulus (ringing doorbell; 12-16 kHz, 109 db) was activated for 30 seconds or until tonic hindlimb extension occurred. The seizure response in these mice is characterized by a progression of a wild running behavior, followed by loss of righting and clonus of the forelimbs, followed by tonic hindlimb extension, and finally respiratory arrest.

[6] = Solubility limit in aqueous assay buffers; format: physicochemical; details: aqueous assay buffers (incubation or bath solutions), aqueous buffer, kinetic from dmso stock, DMSO 0.2 to 1%, read-out: concentrations that could not be tested due to limited solubility in aqueous buffers
Method: Drugs. For all in vitro assays, stock solutions of DCUKA or DCUK-OMe were prepared fresh daily in dimethylsulfoxide (DMSO) then diluted into the incubation or bath solutions with sonication to the desired concentrations for experiments. Due to their limited solubility in aqueous buffers, DCUKA concentrations >300 μM and DCUK-OMe concentrations >100 μM could not be tested. In those assays where high ionic strength buffers were used, i.e., [^3H]batrachiotoxin (BTX) binding in depolarized synaptosomes, concentrations >50 μM could not be tested. The final concentration of DMSO in the assays ranged from 0.2 to 1%. In all assays, drug effects were compared with effects measured in the presence of the identical concentration of DMSO without drug.

[7] = none = no displacement at 100 μM, read-out: IC50 [3H]BTX binding

O=C(O)c1cc(=O)c2c(Cl)cc(Cl)cc2[nH]1 [5,7-DCKA, 5,7-dichlorokynurenic acid, reference compound]
IC50 [1]: 0.11 µM
IC50 [3H]BTX binding ([2]; none = no displacement at 100 μM): none

CCCCC/C=C\C/C=C\C/C=C\C/C=C\CCCC(=O)NCCCl [ACEA, reference compound]
effect on DA stimulated cAMP production with AM251 added ([3]; AM251 10 μM): the effect of ACEA was reversed
effect on DA stimulated cAMP production ([3]; dopamine 1 μM, compound 10 μM): reduced cAMP production

NC(=O)N1c2ccccc2C=Cc2ccccc21 [CBZ, carbamazepine, reference compound]
IC50 [3H]5,7-DCKA binding [1]: none
IC50 ([2]; depolarizing conditions (135 mM KCl), read-out: IC50 [3H]BTX binding under depolarizing conditions (value in parentheses)): 56 µM
IC50 [2, 7]: 71 µM
Kd [4]: 400 µM
Ki [4]: 14.6 µM

COC(=O)c1cc(NC(=O)N(c2ccccc2)c2ccccc2)c2c(Cl)cc(Cl)cc2n1 [DCUK-OMe, N,N-diphenyl-4-ureido-5,7-dichloro-2-carboxy quinoline methyl ester]
IC50 [3H]5,7-DCKA binding [1]: none
IC50 [2, 7]: 25 µM
protection against audiogenic seizures [5]: protection against audiogenic seizures
solubility [6]: > 100 µM
